Experimental data published in the supplement of paper PMC12420376.

What was measured:
Test in all cases: cell viability relative to untreated control (ex vivo patient spheroids); higher = less cytotoxic
Details in all cases: 72 h
Gem243 = system: Gem243 (ex vivo spheroids of an HRD-positive high-grade serous ovarian cancer)
Experimental: (§1)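 Ex vivo 3D spheroid cultures from dissociated tumours of HGSOC patients (DET3CT platform) were treated for 72 h with dose matrices of carboplatin combined with birinapant or vorinostat (nM). Live (TMRM) and dead (POPO-1) cells were imaged and viability was expressed as % of untreated control.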

Gem031 = system: Gem031 (ex vivo spheroids of an HRD-negative high-grade serous ovarian cancer)
Experimental: as §1

Gem059 = system: Gem059 (ex vivo spheroids of an HRD-negative high-grade serous ovarian cancer)
Experimental: as §1

Gem015 = system: Gem015 (ex vivo spheroids of an HRD-positive high-grade serous ovarian cancer)
Experimental: as §1

Gem030 = system: Gem030 (ex vivo spheroids of an HRD-positive high-grade serous ovarian cancer)
Experimental: as §1

O=C(O)C1(C(=O)O)CCC1.[NH2-].[NH2-].[Pt+2] [Carboplatin] + CC[C@H](NC(=O)[C@H](C)NC)C(=O)N1C[C@@H](O)C[C@H]1Cc1c(-c2[nH]c3cc(F)ccc3c2C[C@@H]2C[C@H](O)CN2C(=O)[C@H](CC)NC(=O)[C@H](C)NC)[nH]c2cc(F)ccc12 [Birinapant]
cell viability [%]
Details	partner drug concentration 0 nM	partner drug concentration 0.1 nM	partner drug concentration 1 nM	partner drug concentration 10 nM	partner drug concentration 100 nM	partner drug concentration 1000 nM
Gem015, carboplatin concentration 10 nM	–	100	93.1	93.5	82	55.1
Gem015, carboplatin concentration 100 nM	–	98.5	90	101	77	67.2
Gem015, carboplatin concentration 1000 nM	–	103	89.1	81.6	85.2	59.3
Gem015, carboplatin concentration 10000 nM	91.1	73.5	97.6	89.5	84.6	59
Gem015, carboplatin concentration 100000 nM	61.2	58.2	75.8	73.6	58.7	39.9
Gem030, carboplatin concentration 10 nM	–	99.1	105	99.7	95.4	59.2
Gem030, carboplatin concentration 100 nM	–	106	115	102	92.5	60.8
Gem030, carboplatin concentration 1000 nM	–	104	91.7	101	88.9	59.8
Gem030, carboplatin concentration 10000 nM	105	102	99.6	94.2	90.1	59.3
Gem030, carboplatin concentration 100000 nM	52.2	60.7	68	68.4	47.1	27.3
Gem031, carboplatin concentration 10 nM	–	93	91.2	96	55.3	25.3
Gem031, carboplatin concentration 100 nM	–	98.1	92.1	88.6	61.2	26.3
Gem031, carboplatin concentration 1000 nM	–	98.6	91.8	93.6	56.8	24.8
Gem031, carboplatin concentration 10000 nM	79.2	87	97.5	77.6	46.3	15.5
Gem031, carboplatin concentration 100000 nM	26.3	26.1	27.6	22.9	11.4	3.6
Gem059, carboplatin concentration 10 nM	–	109	101	119	105	102
Gem059, carboplatin concentration 100 nM	–	99.2	99.2	122	97.4	106
Gem059, carboplatin concentration 1000 nM	–	89.4	109	117	106	118
Gem059, carboplatin concentration 10000 nM	100	102	99.8	97.5	112	99
Gem059, carboplatin concentration 100000 nM	77.4	82.5	97.3	79.6	85.4	90.7
Gem243, carboplatin concentration 10 nM	–	92.7	105	80.2	52.3	13.7
Gem243, carboplatin concentration 100 nM	–	108	105	84.7	41.3	15.9
Gem243, carboplatin concentration 1000 nM	–	95.4	94.8	93.9	45.3	15.2
Gem243, carboplatin concentration 10000 nM	89.9	90.9	77.3	82.9	42.4	13.9
Gem243, carboplatin concentration 100000 nM	23.6	28.8	24.9	14	7.4	6

O=C(O)C1(C(=O)O)CCC1.[NH2-].[NH2-].[Pt+2] [Carboplatin] + O=C(CCCCCCC(=O)Nc1ccccc1)NO [Vorinostat]
cell viability [%]
Details	partner drug concentration 0 nM	partner drug concentration 1 nM	partner drug concentration 10 nM	partner drug concentration 100 nM	partner drug concentration 1000 nM	partner drug concentration 10000 nM
Gem015, carboplatin concentration 10 nM	85.7	100	97.5	97.6	76.3	35.6
Gem015, carboplatin concentration 100 nM	97.2	94.2	92.8	93.8	79.3	37.7
Gem015, carboplatin concentration 1000 nM	88.1	96.2	91.6	91.3	71.6	36.2
Gem015, carboplatin concentration 10000 nM	91.1	84.9	97.1	95.6	77.2	36.1
Gem015, carboplatin concentration 100000 nM	61.2	71.2	77.1	74.6	63.5	32.3
Gem030, carboplatin concentration 10 nM	94	101	104	115	100	47.4
Gem030, carboplatin concentration 100 nM	102	108	107	98.2	101	40.2
Gem030, carboplatin concentration 1000 nM	107	110	115	105	106	41
Gem030, carboplatin concentration 10000 nM	105	116	102	111	91.1	40
Gem030, carboplatin concentration 100000 nM	52.2	87.2	69.8	65.9	67.5	17.9
Gem031, carboplatin concentration 10 nM	87.9	97.2	94	90.4	85.1	89.4
Gem031, carboplatin concentration 100 nM	110	97.1	101	95.1	92.6	98.7
Gem031, carboplatin concentration 1000 nM	88	96.9	104	100	93.3	64.1
Gem031, carboplatin concentration 10000 nM	79.2	97.2	90.6	92.2	78.4	38.7
Gem031, carboplatin concentration 100000 nM	26.3	31.4	30.1	22.9	16.9	14.6
Gem059, carboplatin concentration 10 nM	109	99.3	91.5	110	103	86.5
Gem059, carboplatin concentration 100 nM	107	102	105	114	102	95.8
Gem059, carboplatin concentration 1000 nM	91.5	107	104	96.5	110	94.4
Gem059, carboplatin concentration 10000 nM	100	103	116	101	114	95
Gem059, carboplatin concentration 100000 nM	77.4	81.7	81.9	71.5	85	71.2
Gem243, carboplatin concentration 10 nM	90.3	88.4	82.3	101	67.9	19.7
Gem243, carboplatin concentration 100 nM	87.3	98	91.7	90.8	74.3	13.3
Gem243, carboplatin concentration 1000 nM	107	105	47.4	101	68.9	10.1
Gem243, carboplatin concentration 10000 nM	89.9	95.3	101	104	42.1	10.4
Gem243, carboplatin concentration 100000 nM	23.6	21.6	17	11.3	7.3	6.7
